Laboratory results reported in patent publication US20080227813A1, “Pharmaceutical compositions and methods for treating diseases associated with neurodegeneration” (priority 2006, published 2008).
Read-outs that look alike come from different tables or passages of the source.

Experiments:
[1] = Relative animal toxicokinetic and human pharmacokinetic drug exposures; format: in vivo; details: maximum human drug exposure (100 mg tid) = 1.0
[2] = tested on: Beagle dogs; test: 110-day repeated dose oral toxicity study in dogs; format: in vivo, dog
Method: Evaluation […] involving control and three dose groups of 50, 80 and 160 mg/kg/day (equal to 31.0 mg/kg, 49.6 mg/kg and 99.2 mg/kg free base).

[3] = tested on: Beagle dogs; test: 14-day repeated dose oral toxicity study in Beagle dogs; format: in vivo; details: dog, 210 mg/kg/day oral, 14 days
Method: The control animals were treated in the same way with placebo gelatin capsules.
The checks of mortality were done twice daily. The clinical observations were performed at least twice daily and the weighing of non-consumed food was done daily. The body weights of the animals were measured once a week. The hematological, clinical chemical and ECG investigations, urinalysis and the opthalmological examinations were performed prior to the treatment and at the end of the treatment period. Terminally gross necropsy and histopathological examinations were performed according to the study plan.

[4] = tested on: mSOD1^(G93A) mice; test: Lifespan and disease progression in mSOD1(G93A) ALS mice; format: in vivo, mouse
Method: Nat. Med. 10(4), p. 345-7 (2004), which is incorporated by reference.
Thus, Compound I-treated mice lived an average of 153 days (±2.6 SEM, n=7). This represents a significant increase in lifespan of over 22% (p=<0.001). The effect of beginning Compound I treatment at the time of disease onset was also tested by starting treatment at 70 days of age, when the first signs of locomotor defects are observed. Compound I treatment from 70 days of age extended the mean lifespan of mSOD1^(G93A) mice by 23 days, from 125 days (±1.8 SEM, n=18) in the untreated group to 148 days (±1.5 SEM, n=5) in the treated group. This represents an increase in lifespan of 18% (p=<0.001).

[5] = dog, in vivo, po
Method: Four animals of both sexes/groups were used, except the control and high dose group where the groups were completed with 2 recovery animals in both sexes.
The check of mortality and the clinical observations were performed twice daily, the weighing of non-consumed food was done daily. The body weight of the animals was measured once a week. The urine, hematological, clinical chemical and ECG investigations were performed before the first treatment day and at termination of the treatment and at the end of the recovery period. The blood samples for kinetic analysis were taken in the 2nd and in the 104th, 110th and 111th treatment days. The opthalmoscopic examinations were performed prior to the treatment, at termination of the treatment and at the end of the recovery period. Terminally gross necropsy and histopathological examinations were performed in all animals.

[6] = tested on: CRL:(WI)BR rats; test: Acute intravenous toxicity in rats; format: in vivo; details: rat
Method: A control and five dose groups were involved in the rat study at dose levels of 150 mg/kg, 200 mg/kg, 250 mg/kg, 300 mg/kg and 350 mg/kg (equal to 93 mg/kg, 124 mg/kg, 155 mg/kg, 186 mg/kg and 217 mg/kg free base, n=5 animals/sex/group).

[7] = tested on: CRL:(WI)BR rats; test: Acute intraperitoneal toxicity in rats; format: in vivo; details: rat
Method: Acute intraperitoneal toxicity studies were performed in rats (CRL(WI:)BR) and in mice (CRL: NMRI BR).
A control and five dose groups were involved in the rat study at dose levels of 500 mg/kg, 650 mg/kg, 800 mg/kg, 950 mg/kg and 1200 mg/kg (equal to 310 mg/kg, 403 mg/kg, 496 mg/kg, 589 mg/kg and 744 mg/kg free base, n=5 animals/sex/group).

[8] = tested on: CRL: NMRI BR mice; details: mouse, 5000 mg/kg
Method: On the basis of acute oral toxicity of test item Compound I in CRL: NMRI BR mice the dose level 5000 mg/kg (equal to 3101 mg/kg free base) was examined in the micronucleus test.

[9] = tested on: CRL:NMRI BR mice; test: Acute intravenous toxicity in mice; format: in vivo; details: mouse
Method: A control and five dose groups were involved in the mouse study, at dose levels of 200 mg/kg, 250 mg/kg, 300 mg/kg, 360 mg/kg and 450 mg/kg (equal to […], 155 mg/kg, 186 mg/kg, 223 mg/kg and 279 mg/kg free base, n=5 animals/sex/group).

[10] = dog, 50, 80, 160 mg/kg/day oral
[11] = treatment from 70 days of age, vs untreated

[O-][n+]1cccc(/C(Cl)=N/OC[C@H](O)CN2CCCCC2)c1 [Compound I, N-[2-hydroxy-3-(1-piperidinyl)-propoxy]-pyridine-1-oxide-3-carboximidoyl chloride]
Fold-above minimum effective mouse exposure ([1]; AUC): 12 | Fold-above minimum effective rat exposure ([1]; AUC): 5.9 | Fold-below dog drug exposure at NOAEL ([1]; AUC): 17 | Fold-below rat drug exposure at NOAEL ([1]; AUC): 6.0 | Fold-above minimum effective mouse exposure ([1]; Cmax): 2.8 | Fold-above minimum effective rat exposure ([1]; Cmax): 1.4 | Fold-below dog drug exposure at NOAEL ([1]; Cmax): 5 | Fold-below rat drug exposure at NOAEL ([1]; Cmax): 28 | ECG and ophthalmological alterations [2, 10]: No ECG and opthalmological alterations | mortality [2, 10]: No animals died | NOEL ([2]; dog, both sexes, oral once daily for 112 days): 50 mg/kg/day | ECG or ophthalmological alterations [3]: no direct treatment related ECG or opthalmological alterations | clinical signs [3]: decreased activity, tremor, ptosis, salivation, increased muscle tone, vomiting and thin feces | liver histopathology [3]: moderate degree proliferation of cells belonging to the mononuclear phagocyte system (MPS) of the liver | mortality [3]: no death occurred | average lifespan ([4]; 10 mg/kg ip daily from 35 days of age, untreated 125 days): 153 days | mean lifespan ([4]; 10 mg/kg ip daily from 70 days of age, untreated 125 days): 148 days | progression of disease ([4]; ALS transgenic mouse model): significantly delayed the progression of disease | extension of survival ([4]; given pre-symptomatically and at disease onset, study rationale statement): five weeks | increase in lifespan ([4]; treatment from 35 days of age, vs untreated): over 22% | extension of mean lifespan [4, 11]: 23 days | increase in lifespan [4, 11]: 18% | AUCtot ([5]; 50 mg/kg/day): 40220 ng·h/mL | Cmax ([5]; 50 mg/kg/day): 10840 ng/mL | MRT ([5]; 50 mg/kg/day): 3.78 h | Tmax ([5]; 50 mg/kg/day): 1.78 h | clearance ([5]; 50 mg/kg/day): 13 mL/min/kg | t½ ([5]; 50 mg/kg/day): 1.89 h | AUCtot ([5]; 80 mg/kg/day): 87010 ng·h/mL | Cmax ([5]; 80 mg/kg/day): 22000 ng/mL | MRT ([5]; 80 mg/kg/day): 4.04 h | Tmax ([5]; 80 mg/kg/day): 1.88 h | clearance ([5]; 80 mg/kg/day): 9.5 mL/min/kg | t½ ([5]; 80 mg/kg/day): 2.10 h | AUCtot ([5]; 160 mg/kg/day): 166390 ng·h/mL | Cmax ([5]; 160 mg/kg/day): 37950 ng/mL | MRT ([5]; 160 mg/kg/day): 4.57 h | Tmax ([5]; 160 mg/kg/day): 1.94 h | clearance ([5]; 160 mg/kg/day): 10.3 mL/min/kg | t½ ([5]; 160 mg/kg/day): 2.44 h | Intravenous LD50 value ([6]; female, by base): 215 (190-764) by base mg/kg | Intravenous LD50 value ([6]; female, by citrate): 346 (306-1232) by citrate mg/kg | Intravenous LD50 value ([6]; male, by base): 197 (168-301) by base mg/kg | Intravenous LD50 value ([6]; male, by citrate): 317 (271-485) by citrate mg/kg | Intraperitoneal LD50 value ([7]; female, by base): 770 - by base mg/kg | Intraperitoneal LD50 value ([7]; female, by citrate): 1241 - by citrate mg/kg | Intraperitoneal LD50 value ([7]; male, by base): 698 (577-3871) by base mg/kg | Intraperitoneal LD50 value ([7]; male, by citrate): 1125 (931-6241) by citrate mg/kg | mutagenicity in vivo [8]: non-mutagenic | number of micronucleated polychromatic erythrocytes (MPCEs) ([8]; in vivo): did not induce a significant increase | Intravenous LD50 value ([9]; female, by base): 158 - by base mg/kg | Intravenous LD50 value ([9]; female, by citrate): 254 - by citrate mg/kg | Intravenous LD50 value ([9]; male, by base): 190 (164-223) by base mg/kg | Intravenous LD50 value ([9]; male, by citrate): 307 (265-359) by citrate mg/kg
